From US8859569B2, “Substituted annellated pyrimidines and use thereof” (Bayer Pharma Aktiengesellschaft, priority 2011, dated 2014)

Tests used:
aorta rings = assay: Vessel-relaxing action in vitro (aorta rings, phenylephrine contraction); conditions: Oryctolagus cuniculus, concentration required to reduce phenylephrine-induced contraction of rabbit aorta rings by 50%
Procedure: B-1. Vessel-relaxing Action in vitro
Rabbits are stunned with a blow on the back of the neck and exsanguinated. The aorta is removed, freed from adhering tissue, separated into rings with a width of 1.5 mm, and placed individually, with preloading, in 5-ml organ baths with carbogen-gassed Krebs-Henseleit solution at 37° C. with the following composition (mM in each case): sodium chloride: 119; potassium chloride: 4.8; calcium chloride dihydrate: 1; magnesium sulphate heptahydrate: 1.4; potassium dihydrogen phosphate: 1.2; sodium hydrogen carbonate: 25; glucose: 10. The contraction force is recorded with Statham UC2 cells, amplified and digitized via an A/D converter (DAS-1802 HC, Keithley Instruments Munich) and recorded in parallel on a continuous-line recorder. To produce contraction, phenylephrine is added to the bath cumulatively in increasing concentration. After several control cycles, the test substance is added in increasing dosage in each subsequent pass and the level of contraction is compared with the level of contraction reached in the immediately preceding pass. This is used for calculating the concentration that is required to reduce the level of the control value by 50% (IC50 value). The standard application volume is 5 μl, and the proportion of DMSO in the bath solution corresponds to 0.1%.

[1] = target: T1, recombinant guanylate cyclase reporter cell line (Rattus norvegicus, UniProt P19686+P20595); assay: Action on recombinant guanylate cyclase reporter cell line; assay type: cell-based
T1 construct: expressed in transfected cells
T1 sequence (P20595 1-619): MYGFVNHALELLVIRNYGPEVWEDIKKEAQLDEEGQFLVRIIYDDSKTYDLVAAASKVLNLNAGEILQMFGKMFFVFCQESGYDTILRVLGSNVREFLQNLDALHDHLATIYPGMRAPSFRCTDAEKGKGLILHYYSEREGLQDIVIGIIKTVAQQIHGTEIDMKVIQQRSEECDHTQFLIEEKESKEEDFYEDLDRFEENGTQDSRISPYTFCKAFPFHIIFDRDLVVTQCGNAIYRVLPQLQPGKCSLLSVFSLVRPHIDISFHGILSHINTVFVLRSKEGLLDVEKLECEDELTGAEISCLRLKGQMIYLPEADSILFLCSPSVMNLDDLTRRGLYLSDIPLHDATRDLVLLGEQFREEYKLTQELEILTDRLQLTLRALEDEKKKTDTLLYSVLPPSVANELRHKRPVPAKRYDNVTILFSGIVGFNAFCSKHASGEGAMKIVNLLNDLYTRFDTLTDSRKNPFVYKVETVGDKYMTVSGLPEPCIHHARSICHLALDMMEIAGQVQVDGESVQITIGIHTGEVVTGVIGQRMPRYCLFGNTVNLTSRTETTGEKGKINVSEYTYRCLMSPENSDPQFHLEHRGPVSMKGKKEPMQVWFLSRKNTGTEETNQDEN
T1 sequence (P19686 1-690): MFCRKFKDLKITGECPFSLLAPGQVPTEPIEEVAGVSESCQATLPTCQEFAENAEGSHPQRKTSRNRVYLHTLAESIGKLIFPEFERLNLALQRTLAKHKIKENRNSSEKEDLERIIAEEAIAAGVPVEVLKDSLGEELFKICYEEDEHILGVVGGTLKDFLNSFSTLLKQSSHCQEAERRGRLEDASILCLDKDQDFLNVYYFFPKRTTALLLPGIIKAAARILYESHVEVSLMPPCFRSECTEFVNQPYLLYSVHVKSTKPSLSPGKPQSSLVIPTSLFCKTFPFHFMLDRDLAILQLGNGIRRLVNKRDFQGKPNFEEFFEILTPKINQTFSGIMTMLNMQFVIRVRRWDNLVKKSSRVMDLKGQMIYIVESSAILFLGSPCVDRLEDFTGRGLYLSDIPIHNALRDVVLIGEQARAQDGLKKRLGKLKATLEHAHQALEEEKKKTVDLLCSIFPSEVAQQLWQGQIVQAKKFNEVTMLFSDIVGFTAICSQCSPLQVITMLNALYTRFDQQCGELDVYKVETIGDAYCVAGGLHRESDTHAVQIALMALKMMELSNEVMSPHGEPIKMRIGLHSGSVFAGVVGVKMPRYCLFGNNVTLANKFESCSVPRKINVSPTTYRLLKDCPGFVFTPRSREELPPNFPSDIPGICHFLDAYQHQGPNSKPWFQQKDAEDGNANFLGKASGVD
Procedure: B-2. Action on Recombinant Guanylate Cyclase Reporter Cell Line
The cellular action of the compounds according to the invention is determined on a recombinant guanylate cyclase reporter cell line, as described in F. Wunder et al., Anal. Biochem. 339, 104-112 (2005).

[2] = target: T2, human phosphodiesterase 5 (PDE-5) (Homo sapiens, UniProt O76074); assay: Inhibition of human phosphodiesterase 5 (PDE-5), SPA assay; assay type: biochemical; conditions: PDE-5 preparation from human platelets, [8-3H]cGMP substrate
T2 construct: PDE-5 preparations are obtained from human platelets by lysis; from tissue; host or cells: human platelets
Outline: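 PDE-5 partially purified from human platelets by Mono Q chromatography, diluted so under 70% of [8-3H]cGMP (0.025 μCi) converted. Compounds at 4 μM to 0.0018 μM final, Tris-HCl pH 7.5 with MgCl2, 60 min at room temperature. Yttrium SPA beads stop reaction; IC50 from concentration–inhibition plots.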

Structure (SMILES)	IC50 (aorta rings) [nM]	MEC (minimal effective concentration) [1] [μm]	IC50 [2] [nM]
CC1(C)C(=O)Nc2nc(-c3nn(Cc4ccccc4F)c4ncccc34)nc(N3CCS(=O)(=O)CC3)c21 [Example 93, 4-(1,1-Dioxidothiomorpholin-4-yl)-2-[1-(2-fluorobenzyl)-1H-pyrazolo[3,4-b]pyridin-3-yl]-5,5-dimethyl-5,7-dihydro-6H-pyrrolo[2,3-d]pyrimidin-6-one]	984	0.3	120
CC(C)(N)CNc1nc(-c2nn(Cc3ccccc3F)c3ncc(F)cc23)nc2c1C(C)(C)C(=O)N2 [Example 3, 4-[(2-Amino-2-methylpropyl)amino]-2-[5-fluoro-1-(2-fluorobenzyl)-1H-pyrazolo[3,4-b]pyridin-3-yl]-5,5-dimethyl-5,7-dihydro-6H-pyrrolo[2,3-d]pyrimidin-6-one]	469	3.0	46
CC1(C)C(=O)Nc2nc(-c3nn(Cc4ccccc4F)c4ncc(F)cc34)nc(NCC(F)F)c21 [Example 7, 4-[(2,2-Difluoroethyl)amino]-2-[5-fluoro-1-(2-fluorobenzyl)-1H-pyrazolo[3,4-b]pyridin-3-yl]-5,5-dimethyl-5,7-dihydro-6H-pyrrolo[2,3-d]pyrimidin-6-one]	200	0.1	110
CC1(C)C(=O)Nc2nc(-n3nc(Cc4ccccc4F)c4ccccc43)nc(NCC3CC3)c21 [Example 36]	5490	0.3	89
Cc1nc2c(cc1F)c(-c1nc(NCCC(F)(F)F)c3c(n1)NC(=O)C3(C)C)nn2Cc1ccccc1F [Example 90, 2-[5-Fluoro-1-(2-fluorobenzyl)-6-methyl-1H-pyrazolo[3,4-b]pyridin-3-yl]-5,5-dimethyl-4-[(3,3,3-trifluoropropyl)amino]-5,7-dihydro-6H-pyrrolo[2,3-d]pyrimidin-6-one]	3070	0.3	230
COc1nc(-c2nn(Cc3ccccc3F)c3ncccc23)nc2c1C(C)(C)C(=O)N2 [Example 1, 2-[1-(2-Fluorobenzyl)-1H-pyrazolo[3,4-b]pyridin-3-yl]-4-methoxy-5,5-dimethyl-5,7-dihydro-6H-pyrrolo[2,3-d]pyrimidin-6-one]	114	0.1	140
CC1(C)C(=O)Nc2nc(-c3nn(Cc4ccccc4F)c4ncc(F)cc34)nc(NCC(N)C(F)(F)F)c21 (centres unmarked) [Example 6, 4-[(2-Amino-3,3,3-trifluoropropyl)amino]-2-[5-fluoro-1-(2-fluorobenzyl)-1H-pyrazolo[3,4-b]pyridin-3-yl]-5,5-dimethyl-5,7-dihydro-6H-pyrrolo[2,3-d]pyrimidin-6-one]	680		120
CC(C)(O)CNc1nc(-c2nn(Cc3ccccc3F)c3ncc(F)cc23)nc2c1C(C)(C)C(=O)N2 [Example 4, 2-[5-Fluoro-1-(2-fluorobenzyl)-1H-pyrazolo[3,4-b]pyridin-3-yl]-4-[(2-hydroxy-2-methylpropyl)amino]-5,5-dimethyl-5,7-dihydro-6H-pyrrolo[2,3-d]pyrimidin-6-one]	62	0.1	6
Cc1cc(C)n(-c2nc(-c3nn(Cc4ccccc4F)c4ncccc34)nc3c2C(C)(C)C(=O)N3)n1 [Example 23, 4-(3,5-Dimethyl-1H-pyrazol-1-yl)-2-[1-(2-fluorobenzyl)-1H-pyrazolo[3,4-b]pyridin-3-yl]-5,5-dimethyl-5,7-dihydro-6H-pyrrolo[2,3-d]pyrimidin-6-one]	2860	0.1	1600
CC1(C)C(=O)Nc2nc(-c3nn(Cc4ccccc4F)c4ncccc34)nc(N3CC(C(F)(F)F)CCC3=O)c21 (centres unmarked) [Example 91, 2-[1-(2-Fluorobenzyl)-1H-pyrazolo[3,4-b]pyridin-3-yl]-5,5-dimethyl-4-[2-oxo-5-(trifluoromethyl)piperidin-1-yl]-5,7-dihydro-6H-pyrrolo[2,3-d]pyrimidin-6-one]	517	0.03	600
CC1(C)C(=O)Nc2nc(-c3nn(Cc4ccccc4F)c4ncccc34)nc(-n3ccc(C(F)(F)F)n3)c21 [Example 30, 2-[1-(2-Fluorobenzyl)-1H-pyrazolo[3,4-b]pyridin-3-yl]-5,5-dimethyl-4-[3-(trifluoromethyl)-1H-pyrazol-1-yl]-5,7-dihydro-6H-pyrrolo[2,3-d]pyrimidin-6-one]	> 10000	1.0	> 4000
CC1(C)C(=O)Nc2nc(-c3nc(Cc4c(F)ccc(F)c4F)n4cc(Cl)ccc34)nc(NCCC(F)(F)F)c21 [Example 13, 2-[6-Chloro-3-(2,3,6-trifluorobenzyl)imidazo[1,5-a]pyridin-1-yl]-5,5-dimethyl-4-[(3,3,3-trifluoropropyl)amino]-5,7-dihydro-6H-pyrrolo[2,3-d]pyrimidin-6-one]	4970	0.1	80
CC1(C)C(=O)Nc2nc(-c3nn(Cc4ccccc4F)c4ncc(F)cc34)nc(O)c21 [Example 102, 2-[5-Fluoro-1-(2-fluorobenzyl)-1H-pyrazolo[3,4-b]pyridin-3-yl]-4-hydroxy-5,5-dimethyl-5,7-dihydro-6H-pyrrolo[2,3-d]pyrimidin-6-one]	156	1	74
CC1(C)C(=O)Nc2nc(-c3nn(Cc4cccc(F)c4F)c4ncc(F)cc34)nc(OCCC(F)(F)F)c21 [Example 110, 2-[1-(2,3-Difluorobenzyl)-5-fluoro-1H-pyrazolo[3,4-b]pyridin-3-yl]-5,5-dimethyl-4-(3,3,3-trifluoropropoxy)-5,7-dihydro-6H-pyrrolo[2,3-d]pyrimidin-6-one]	10000		840
CCN(CCOC)c1nc(-c2nn(Cc3ccccc3F)c3ncccc23)nc2c1C(C)(C)C(=O)N2 [Example 61, 4-[ethyl(2-methoxyethyl)amino]-2-[1-(2-fluorobenzyl)-1H-pyrazolo[3,4-b]pyridin-3-yl]-5,5-dimethyl-5,7-dihydro-6H-pyrrolo[2,3-d]pyrimidin-6-one]		0.03	100
CC1(C)C(=O)Nc2nc(-c3nn(Cc4ccccc4F)c4ncccc34)nc(NCc3ccccc3)c21 [Example 83, 4-(benzylamino)-2-[1-(2-fluorobenzyl)-1H-pyrazolo[3,4-b]pyridin-3-yl]-5,5-dimethyl-5,7-dihydro-6H-pyrrolo[2,3-d]pyrimidin-6-one]		0.03	230
